Data set [1] concerns the target T1, human adenosine A2A receptor (Homo sapiens, UniProt P29274).
T1 construct: expressed in transfected cells; host or cells: CHO cells, Semliki Forest virus expression system; washed membrane preparation
As to the kind of experiment: [3H]-SCH-58261 binding assay at the human adenosine A2A receptor. Conditions: [3H]-SCH-58261 (1 nM), membranes of CHO cells recombinantly expressing the human A2A receptor; Ki by Cheng-Prussoff; read-out: hA2ApKi (converted). On the procedure:
Human Adenosine A2A Receptor
The human adenosine A2A receptor was recombinantly expressed in chinese hamster ovary (CHO) cells using the semliki forest virus expression system. Cells were harvested, washed twice by centrifugation, homogenised and again washed by centrifugation. The final washed membrane pellet was suspended in a Tris (50 mM) buffer containing 120 mM NaCl, […] and 10 mM MgCl2 (pH 7.4) (buffer A). The [^3H]-SCH-58261 (Dionisotti et al., 1997, Br J Pharmacol 121, 353; 1 nM) binding assay was carried out in 96-well plates in the presence of 2.5 μg of membrane protein, 0.5 mg of Ysi-poly-1-lysine SPA beads io and 0.1U adenosine deaminase in a final volume of 200 μl of buffer A. Non-specific binding was defined using xanthine amine congener (XAC; 2 μM). Compounds were tested at 10 concentrations from 10 μM-0.3 nM. All assays were conducted in duplicate and repeated at least two times. Assay plates were incubated for lhour at room temperature before centrifugation and then bound ligand determined using a Packard Topcount scintillation counter. IC50 values were calculated using a non-linear curve fitting program and Ki values calculated using the Cheng-Prussoff equation.

T1 sequence (P29274 whole entry): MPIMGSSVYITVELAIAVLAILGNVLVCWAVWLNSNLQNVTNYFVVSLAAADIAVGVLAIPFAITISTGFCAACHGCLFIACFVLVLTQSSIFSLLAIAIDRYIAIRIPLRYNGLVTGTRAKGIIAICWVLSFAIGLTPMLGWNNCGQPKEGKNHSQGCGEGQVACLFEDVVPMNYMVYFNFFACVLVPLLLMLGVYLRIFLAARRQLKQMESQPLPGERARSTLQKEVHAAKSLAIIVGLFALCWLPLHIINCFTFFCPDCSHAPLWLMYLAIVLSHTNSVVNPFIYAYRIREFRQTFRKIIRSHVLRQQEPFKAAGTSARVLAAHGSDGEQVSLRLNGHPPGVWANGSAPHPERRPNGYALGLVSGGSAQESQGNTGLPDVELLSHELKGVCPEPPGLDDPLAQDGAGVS

Take `Cc1cc(-c2cc(N)n3nc(-c4ccccn4)nc3c2)ccn1` [7-(2-Methyl-pyridin-4-yl)-2-pyridin-2-yl-[1,2,4]triazolo[1,5-a]pyridin-5-ylamine]: the Ki in data set [1] is 31.6 nM.

Take `COc1ccc(-c2cc(N)n3nc(-c4ccco4)nc3c2)cc1OC` [7-(3,4-Dimethoxy-phenyl)-2-furan-2-yl-[1,2,4]triazolo[1,5-a]pyridin-5-ylamine]: the Ki in data set [1] is 25.1 nM.

`Nc1cc(-c2ccccn2)cc2nc(-c3ccccc3)nn12` [Example 23, 2-Phenyl-7-pyridin-2-yl-[1,2,4]triazolo[1,5-a]pyridin-5-ylamine]: the melting point was 278 to 280 °C.

In the case of `Nc1cc(-c2ccc(Cl)c(Cl)c2)cc2nc(C3=CCCO3)nn12` [7-(3,4-Dichloro-phenyl)-2-(4,5-dihydro-furan-2-yl)-[1,2,4]triazolo[1,5-a]pyridin-5-ylamine], in data set [1], the Ki was 7.94 nM.

As to `Nc1cc(-c2ccnc(F)c2)cc2nc(-c3ccco3)nn12` [7-(2-Fluoro-pyridin-4-yl)-2-furan-2-yl-[1,2,4]triazolo[1,5-a]pyridin-5-ylamine], the Ki in data set [1] is 15.8 nM.

For `CCc1cc(-c2cc(N)n3nc(-c4ccco4)nc3c2)ccn1` [Example 8, 7-(2-Ethyl-pyridin-4-yl)-2-furan-2-yl-[1,2,4]triazolo[1,5-a]pyridin-5-ylamine], the melting point was 184 to 186 °C.

Consider `Cc1cccc(-c2cc(N)n3nc(-c4ccco4)nc3c2)c1` [2-Furan-2-yl-7-m-tolyl-[1,2,4]triazolo[1,5-a]pyridin-5-ylamine], for which the Ki in data set [1] is 10 nM.

Turning to `CCc1cc(-c2cc(N)n3nc(-c4ccccn4)nc3c2)ccn1` [7-(2-Ethyl-pyridin-4-yl)-2-pyridin-2-yl-[1,2,4]triazolo[1,5-a]pyridin-5-ylamine], the Ki in data set [1] was 7.94 nM.

`Cc1cc(-c2cc(N)n3nc(-c4ccco4)nc3c2)ccn1` [Example 7, 2-Furan-2-yl-7-(2-methyl-pyridin-4-yl)-[1,2,4]triazolo[1,5-a]pyridin-5-ylamine] gave a melting point of 100 to 101 °C.

For `Nc1cc(-c2ccccc2)cc2nc(-c3ccccc3)nn12` [Example 25, 2,7-Diphenyl-[1,2,4]triazolo[1,5-a]pyridin-5-ylamine], the melting point fell in the range of 214 to 216 °C.

`Nc1cc(-c2cc(Cl)cc(Cl)c2)cc2nc(-c3ccco3)nn12` [Example 5, 7-(3,5-Dichloro-phenyl)-2-furan-2-yl-[1,2,4]triazolo[1,5-a]pyridin-5-ylamine] returned a melting point of 257 to 260 °C.

On to `Nc1cc(-c2cccc(F)c2)cc2nc(C3=CCCO3)nn12` [2-(4,5-Dihydro-furan-2-yl)-7-(3-fluoro-phenyl)-[1,2,4]triazolo[1,5-a]pyridin-5-ylamine], for which the Ki in data set [1] was 25.1 nM.

Take `Cc1cccc(-c2cc(N)n3nc(C4=CCCO4)nc3c2)c1` [2-(4,5-Dihydro-furan-2-yl)-7-m-tolyl-[1,2,4]triazolo[1,5-a]pyridin-5-ylamine]: the Ki in data set [1] was 31.6 nM.

Regarding `COc1ccc(-c2cc(N)n3nc(-c4ccco4)nc3c2)cn1` [2-Furan-2-yl-7-(6-methoxy-pyridin-3-yl)-[1,2,4]triazolo[1,5-a]pyridin-5-ylamine], the Ki in data set [1] is 12.6 nM.

The compound `Nc1cc(-c2cccnc2)cc2nc(-c3ccccc3)nn12` [Example 24, 2-Phenyl-7-pyridin-3-yl-[1,2,4]triazolo[1,5-a]pyridin-5-ylamine] showed a melting point of 201 to 203 °C.

In turn, `Cc1cc(-c2nc3cc(-c4ccncc4)cc(N)n3n2)oc1C` [Example 16, 2-(4,5-Dimethyl-furan-2-yl)-7-pyridin-4-yl-[1,2,4]triazolo[1,5-a]pyridin-5-ylamine] came in with a melting point of 275 to 277 °C.

`Nc1cc(-c2ccncc2)cc2nc(-c3ccccc3)nn12` [Example 22, 2-Phenyl-7-pyridin-4-yl-[1,2,4]triazolo[1,5-a]pyridin-5-ylamine] displayed a melting point of 207 to 210 °C.

By melting point is commonly meant the temperature of the solid-liquid transition.
